Results from patent US20250122192A1, “5-PYRIMIDINECARBOXAMIDE DERIVATIVES AND METHODS OF USING THE SAME” (Rgenta Therapeutics, Inc., priority 2021, published 2025).
Where a name gives a salt, the structure may show the parent alone.

These compounds were tested on PMS1 (assay: Mini-gene reporter assay-PMS1). Conditions: Homo sapiens, HEK293, PMS1 mini-gene firefly luciferase reporter transiently transfected into HEK293 cells; read-out: PMS1 IC50.
Format: cell-based
Method in brief: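 HEK293 cells transiently transfected with a mini-gene construct: skipped exon with flanking introns and exons fused to firefly luciferase in pcDNA3.1, so exon inclusion raises luciferase signal. Compounds tested in duplicate dilutions, luminescence read after incubation, EC50 fitted by Levenberg-Marquardt.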

First: CCCOc1nc(N2CCNCC2)ncc1C(=O)Nc1cc(F)c2nn(C)cc2c1 [Compound 301, N-(7-fluoro-2-methyl-2H-indazol-5-yl)-2-(piperazin-1-yl)-4-propoxypyrimidine-5-carboxamide]
Second: Cn1cc2cc(NC(=O)c3cnc(N4CCNCC4)nc3OCC(F)F)cc(F)c2n1 [Compound 302, 4-(2,2-difluoroethoxy)-N-(7-fluoro-2-methyl-2H-indazol-5-yl)-2-(piperazin-1-yl)pyrimidine-5-carboxamide]
The IC50 of the first is lower: 1000 to 3000 nM for the first, greater than 3000 nM for the second. The first is the more potent here.

First: CCOc1nc(N2CCC3(CCNCC3)C2)ncc1C(=O)Nc1cc(F)c2nc(C)cn2c1 [Compound 219]
Second: CCOc1nc(N2CCC3(CC2)CN(C)C3)ncc1C(=O)Nc1cc(F)c2nc(C)cn2c1 [Compound 303, 4-ethoxy-N-(8-fluoro-2-methylimidazo[1,2-a]pyridin-6-yl)-2-(2-methyl-2,7-diazaspiro[3.5]nonan-7-yl)pyrimidine-5-carboxamide]
The IC50 of the first is lower: less than 500 nM for the first, 500 to 1000 nM for the second. The first is the more potent here.

Going from `COc1nc(N2CC3CNCC3C2)ncc1C(=O)Nc1cn2cc(C)nc2c(C)n1` (centres unmarked) [Compound 22, N-{2,8-dimethylimidazo[1,2-a]pyrazin-6-yl}-4-methoxy-2-{octahydropyrrolo[3,4-c]pyrrol-2-yl}pyrimidine-5-carboxamide] to `CCOc1nc(N2CC3CNC(C3)C2)ncc1C(=O)Nc1cn2cc(C)nc2c(C)n1` (centres unmarked) [Compound 85], the IC50 rises from less than 500 nM to greater than 3000 nM.

`CCOc1nc(N2C[C@H]3CNCC[C@H]32)ncc1C(=O)Nc1cn2cc(C)nc2c(C)n1` (racemic) [Compound 95] and `CCOc1nc(N2CCCC3CNCCC32)ncc1C(=O)Nc1cn2cc(C)nc2c(C)n1` (centres unmarked) [Compound 49] cannot be ordered by IC50: less than 500 nM for the first, less than 500 nM for the second.

First: CCOc1nc(N2CCC(N(C)C)C2)ncc1C(=O)Nc1cc(F)c2nc(C)cn2c1 (centres unmarked) [Compound 269, 2-(3-(dimethylamino)pyrrolidin-1-yl)-4-ethoxy-N-(8-fluoro-2-methylimidazo[1,2-a]pyridin-6-yl)pyrimidine-5-carboxamide]
Second: CCOc1nc(N2CC[C@@H](CN(C)C)C2)ncc1C(=O)Nc1cc(F)c2nc(C)cn2c1 [Compound 305, (S)-2-(3-((dimethylamino)methyl)pyrrolidin-1-yl)-4-ethoxy-N-(8-fluoro-2-methylimidazo[1,2-a]pyridin-6-yl)pyrimidine-5-carboxamide formate]
The IC50 of the first is higher: 1000 to 3000 nM for the first, 500 to 1000 nM for the second.

Compared with `CCOc1nc(N2CCN(C)CC2)ncc1C(=O)Nc1cc(F)c2nn(C)cc2c1` [Compound 259, 4-ethoxy-N-(7-fluoro-2-methyl-2H-indazol-5-yl)-2-(4-methylpiperazin-1-yl)pyrimidine-5-carboxamide formate], `CCOc1nc(N2CCN(CC)CC2)ncc1C(=O)Nc1cc(F)c2nn(C)cc2c1` [Compound 252, 4-ethoxy-2-(4-ethylpiperazin-1-yl)-N-(7-fluoro-2-methyl-2H-indazol-5-yl)pyrimidine-5-carboxamide hydrochloride] is higher in IC50: 1000 to 3000 nM for the first, greater than 3000 nM for the second.

`CCOc1nc(N2CCCC(NC)C2)ncc1C(=O)Nc1cc(F)c2nc(C)cn2c1` (centres unmarked) [Compound 232] and `CCOc1nc(N2CCN[C@@H](C)C2)ncc1C(=O)Nc1cc(F)c2nc(C)cn2c1` [Compound 7, 4-ethoxy-N-{8-fluoro-2-methylimidazo[1,2-a]pyridin-6-yl}-2-[(3S)-3-methylpiperazin-1-yl]pyrimidine-5-carboxamide] fall in the same range of IC50: 500 to 1000 nM for the first, 500 to 1000 nM for the second.

Compared with `CCOc1nc(N(C)C2CCCNCC2)ncc1C(=O)Nc1cn2cc(C)nc2c(C)n1` (centres unmarked) [Compound 46], `CCOc1nc(N2CCCNCC2)ncc1C(=O)Nc1cn2cc(C)nc2c(C)n1` [Compound 103] is higher in IC50: less than 500 nM for the first, 1000 to 3000 nM for the second.

Going from `CCOc1nc(N2CC[C@H](NC)C2)ncc1C(=O)Nc1cc(F)c2nn(C)cc2c1` [Compound 277, (S)-4-ethoxy-N-(7-fluoro-2-methyl-2H-indazol-5-yl)-2-(3-(methylamino)pyrrolidin-1-yl)pyrimidine-5-carboxamide 4-methylbenzenesulfinate] to `CCOc1nc(N2CC[C@H](N(C)C)C2)ncc1C(=O)Nc1cc(F)c2nn(C)cc2c1` [Compound 291, (S)-2-(3-(dimethylamino)pyrrolidin-1-yl)-4-ethoxy-N-(7-fluoro-2-methyl-2H-indazol-5-yl)pyrimidine-5-carboxamide formate], the IC50 rises from less than 500 nM to greater than 3000 nM. The first is the more potent here.

`CCOc1nc(N2CCCC3NCCCC32)ncc1C(=O)Nc1cc(F)c2nc(C)cn2c1` (centres unmarked) [Compound 122] and `CCOc1nc(N2CCC[C@H]3CNC[C@H]32)ncc1C(=O)Nc1cc(F)c2nc(C)cn2c1` [Compound 193] fall in the same range of IC50: 500 to 1000 nM for the first, 500 to 1000 nM for the second.

First: CCOc1nc(N2CC(C3CNC3)C2)ncc1C(=O)Nc1cc(F)c2nc(C)cn2c1 [Compound 143]
Second: CCOc1nc(N2CCC(C3CNC3)CC2)ncc1C(=O)Nc1cc(F)c2nc(C)cn2c1 [Compound 142]
The IC50 of the first is lower: less than 500 nM for the first, 1000 to 3000 nM for the second. The first is the more potent here.

Compared with `CCOc1nc(NC2CCNCC2)ncc1C(=O)Nc1cn2cc(C)nc2cn1` [Compound 268, 4-ethoxy-N-(2-methylimidazo[1,2-a]pyrazin-6-yl)-2-(piperidin-4-ylamino) pyrimidine-5-carboxamide formate], `CCOc1nc(N2CC3(CCNCC3)CC2C)ncc1C(=O)Nc1cn2cc(C)nc2c(C)n1` (centres unmarked) [Compound 68] is higher in IC50: 1000 to 3000 nM for the first, greater than 3000 nM for the second. The first is the more potent here.

Compared with `CCOc1nc(N2CCNC(C(F)F)C2)ncc1C(=O)Nc1cc(F)c2nc(C)cn2c1` (centres unmarked) [Compound 115], `CCOc1nc(N2CCNC(C)CC2)ncc1C(=O)Nc1cc(F)c2nc(C)cn2c1` (centres unmarked) [Compound 191] is lower in IC50: greater than 3000 nM for the first, less than 500 nM for the second. The second is the more potent here.

First: CCOc1nc(N(C)[C@@H]2CNC[C@H]2O)ncc1C(=O)Nc1cc(F)c2nc(C)cn2c1 (racemic) [Compound 174]
Second: CCOc1nc(N(C)C2CCNCC2C)ncc1C(=O)Nc1cc(F)c2nc(C)cn2c1 (centres unmarked) [Compound 160]
The IC50 of the first is higher: 1000 to 3000 nM for the first, less than 500 nM for the second. The second is the more potent here.

Compared with `CCOc1nc(N2CCCC(C3CCNC3)C2)ncc1C(=O)Nc1cc(F)c2nc(C)cn2c1` (centres unmarked) [Compound 108], `CCOc1nc(N2CCC(NCC3CC3)CC2)ncc1C(=O)Nc1cc(F)c2nc(C)cn2c1` [Compound 164] is lower in IC50: 500 to 1000 nM for the first, less than 500 nM for the second.

Compared with `CCOc1nc(N2CCNCC2)ncc1C(=O)Nc1cc(OC)c2nn(C)cc2c1` [Compound 273, 4-ethoxy-N-(7-methoxy-2-methyl-2H-indazol-5-yl)-2-(piperazin-1-yl)pyrimidine-5-carboxamide formate], `CCN(c1ncc(C(=O)Nc2cc(F)c3nn(C)cc3c2)c(OC)n1)C1CCNCC1` [Compound 284, 2-(ethyl(piperidin-4-yl)amino)-N-(7-fluoro-2-methyl-2H-indazol-5-yl)-4-methoxypyrimidine-5-carboxamide formate] is lower in IC50: 1000 to 3000 nM for the first, less than 500 nM for the second.

`CCOc1nc(N2CCN[C@@H](C(C)C)C2)ncc1C(=O)Nc1cn2cc(C)nc2c(C)n1` [Compound 65] and `CCOc1nc(N2C[C@@H](C)N[C@@H](C)C2)ncc1C(=O)Nc1cn2cc(C)nc2c(C)n1` [Compound 67] fall in the same range of IC50: 500 to 1000 nM for the first, 500 to 1000 nM for the second.

`CCOc1nc(N2CC3(CC(NC)CO3)C2)ncc1C(=O)Nc1cn2cc(C)nc2c(C)n1` (centres unmarked) [Compound 33] and `CCNC1CN(c2ncc(C(=O)Nc3cn4cc(C)nc4c(C)n3)c(OCC)n2)C1` [Compound 100] cannot be ordered by IC50: greater than 3000 nM for the first, greater than 3000 nM for the second.

`CCOc1nc(N2CCC(NCCOC)CC2)ncc1C(=O)Nc1cc(F)c2nc(C)cn2c1` [Compound 155] and `CCOc1nc(N2CCC(NC)C2)ncc1C(=O)Nc1cc(OC)c2nc(C)cn2c1` (centres unmarked) [Compound 283, 4-ethoxy-N-(8-methoxy-2-methylimidazo[1,2-a]pyridin-6-yl)-2-(3-(methylamino)pyrrolidin-1-yl)pyrimidine-5-carboxamide formate] cannot be ordered by IC50: less than 500 nM for the first, less than 500 nM for the second.

First: CCOc1nc(N(CC)C2CCCNC2)ncc1C(=O)Nc1cc(F)c2nc(C)cn2c1 (centres unmarked) [Compound 215]
Second: CCOc1nc(N(C)C2CC3CCC(C2)N3)ncc1C(=O)Nc1cc(F)c2nc(C)cn2c1 (centres unmarked) [Compound 190]
The IC50 of the first is higher: 1000 to 3000 nM for the first, less than 500 nM for the second.

Compared with `CCOc1nc(N2CC[C@H](NC)C2)ncc1C(=O)Nc1ccc2nn(C)cc2c1` [Compound 285, (S)-4-ethoxy-N-(2-methyl-2H-indazol-5-yl)-2-(3-(methylamino)pyrrolidin-1-yl)pyrimidine-5-carboxamide 2,2,2-trifluoroacetate], `CCOc1nc(N2CC[C@@H](NC)C2)ncc1C(=O)Nc1ccc2nn(C)cc2c1` [Compound 286, (R)-4-ethoxy-N-(2-methyl-2H-indazol-5-yl)-2-(3-(methylamino)pyrrolidin-1-yl)pyrimidine-5-carboxamide formate] is lower in IC50: 1000 to 3000 nM for the first, 500 to 1000 nM for the second. The second is the more potent here.

First: CCOc1nc(N2CCC3(CCCN3)CC2)ncc1C(=O)Nc1cn2cc(C)nc2c(C)n1 [Compound 54]
Second: CCOc1nc(N2CCC3(CC2)COC(C)CN3)ncc1C(=O)Nc1cn2cc(C)nc2c(C)n1 (centres unmarked) [Compound 61]
The IC50 of the first is lower: less than 500 nM for the first, greater than 3000 nM for the second. The first is the more potent here.

`CCOc1nc(N2CCNC(C)C2C)ncc1C(=O)Nc1cc(F)c2nc(C)cn2c1` (centres unmarked) [Compound 213] and `CCNC1COC2(C1)CN(c1ncc(C(=O)Nc3cc(F)c4nc(C)cn4c3)c(OCC)n1)C2` (centres unmarked) [Compound 247] cannot be ordered by IC50: less than 500 nM for the first, less than 500 nM for the second.

First: CCOc1nc(N2CCC(NCC3CC3)CC2)ncc1C(=O)Nc1cn2cc(C)nc2c(C)n1 [Compound 74]
Second: CCOc1nc(N2CCC(CNC(C)C)CC2)ncc1C(=O)Nc1cn2cc(C)nc2c(C)n1 [Compound 58]
The IC50 of the first is higher: greater than 3000 nM for the first, 500 to 1000 nM for the second. The second is the more potent here.

For `CCOc1nc(N2CC[C@@H]3NCCC[C@@H]3C2)ncc1C(=O)Nc1cn2cc(C)nc2c(C)n1` (racemic) [Compound 31], the IC50 was greater than 3000 nM.

Same assay, conditions: Homo sapiens; at 5 μM; PMS1 mini-gene firefly luciferase reporter in HEK293 cells; read-out: PMS1% Effect at 5 μM

Compared with `CCOc1nc(N2CC3(CCN3)C2)ncc1C(=O)Nc1cn2cc(C)nc2c(C)n1` [Compound 24], `CCOc1nc(N2CCNCC2C(C)C)ncc1C(=O)Nc1cc(F)c2nc(C)cn2c1` (centres unmarked) [Compound 227] is lower in activation at 5 µM: 50 to 75% for the first, less than 50% for the second.

First: CCOc1nc(N2CC[C@@H](NC)C2)ncc1C(=O)Nc1ccn2nc(C)cc2c1 [Compound 313, 4-ethoxy-2-[(3R)-3-(methylamino)pyrrolidin-1-yl]-N-2-methylpyrazolo[1,5-a]-pyridin-5-ylpyrimidine-5-carboxamide]
Second: CCOc1nc(N2CCNC(CC(F)F)C2)ncc1C(=O)Nc1cc(F)c2nc(C)cn2c1 (single isomer, unassigned) [Compound 309]
The activation at 5 µM of the first is higher: greater than 75% for the first, 50 to 75% for the second.
